# From patent publication US5602153A, “Method of using 1-arylheteroarylalkyl substituted-1H-1,2,4-triazole compounds for treatment of a giaucoma disorder” (G.D. Searle & Co., priority 1993, dated 1997)
# Key:
# [1] = tested on: pressor response to AII; assay: Assay D: In Vivo Intragastric Pressor Assay Response for AII Antagonists of Examples #1 and #3; set-up: species or system rat (male Sprague-Dawley); settings: 3 mg/kg gavage
# Protocol: Assay D: In Vivo Intragastric Pressor Assay Response for AII Antagonists of Examples #1 and #3
# Male Sprague-Dawley rats weighing 225-300 grams were anesthetized with methohexital (30 mg/kg, i.p.) and catheters were implanted into the femoral artery and vein. The catheters were tunneled subcutaneously to exit dorsally, posterior to the head and between the scapulae. The catheters were filled with heparin (1000 units/ml of saline). The rats were returned to their cage and allowed regular rat chow and water ad libitum. After full recovery from surgery (3-4 days), rats were placed in Lucite holders and the arterial line was connected to a pressure transducer. Arterial pressure was recorded on a Gould polygraph (mmHg). Angiotensin II was administered as a 30 ng/kg bolus via the venous catheter delivered in a 50 μl volume with a 0.2 ml saline flush. The pressor response in mm Hg was measured by the difference from pre-injection arterial pressure to the maximum pressure achieved. The AII injection was repeated every 10 minutes until three consecutive injections yielded responses within 4 mmHg of each other. These three responses were then averaged and represented the control response to AII. The test compound was suspended in 0.5% methylcellulose in water and was administered by gavage. The volume administered was 2 ml/kg body weight. The standard dose was 3 mg/kg. […] The pressor response to AII was measured at each time point. The rats were then returned to their cage for future testing. A minimum of 3 days was allowed between tests. Percent inhibition was calculated for each time point following gavage by the following formula: [(Control Response-Response at time point)/Control Response]×100.
# [2] = tested on: pressor response to AII; assay: Assay C: In Vivo Intragastric Pressor Assay Response for AII Antagonists; set-up: species or system rat (male Sprague-Dawley); settings: po; 3 mg/kg i.g., rat, AII 30 ng/kg bolus
# Protocol: Assay C: In Vivo Intragastric Pressor Assay Response for AII Antagonists of the Invention
# Male Sprague-Dawley rats weighing 225-300 grams were anesthetized with methohexital (30 mg/kg, i.p.) and catheters were implanted into the femoral artery and vein. The catheters were tunneled subcutaneously to exit dorsally, posterior to the head and between the scapulae. The catheters were filled with heparin (1000 units/ml of saline). The rats were returned to their cage and allowed regular rat chow and water ad libitum. After full recovery from surgery (3-4 days), rats were placed in Lucite holders and the arterial line was connected to a pressure transducer. Arterial pressure was recorded on a Gould polygraph (mmHg). Angiotensin II was administered as a 30 ng/kg bolus via the venous catheter delivered in a 50 μl volume with a 0.2 ml saline flush. The pressor response in mmHg was measured by the difference from pre-injectionarterial pressure to the maximum pressure achieved. The AII injection was repeated every 10 minutes until three consecutive injections yielded responses within 4 mmHg of each other. These three responses were then averaged and represented the control response to AII. The test compound was suspended in 0.5% methylcellulose in water and was administered by gavage. The volume administered was 2 ml/kg body weight. The standard dose was 3 mg/kg. Angiotensin II bolus injections were given at 30, 45, 60, 75, 120, 150, and 180 minutes after gavage. The pressor response to AII was measured at each time point. The rats were then returned to their cage for future testing. A minimum of 3 days was allowed between tests. Percent inhibition was calculated for each time point following gavage by the following formula: [(Control Response-Response at time point)/Control Response]×100.
compound,measurement,setting,value
"CCCCc1nc(CCCC)n(Cc2ccc(-c3ccccc3-c3nnn[nH]3)cn2)n1 [Example 1, 5-[2-[6-[(3,5-dibutyl-1H-1,2,4-triazol-1-yl)methyl]-3-pyridinyl]phenyl]-1H-tetrazole]",% Inhibition of Blood Pressure Elevation,"[1]; Rat A, 0 min",0%
same,% Inhibition of Blood Pressure Elevation,"[1]; Rat A, 30 min",14%
same,% Inhibition of Blood Pressure Elevation,"[1]; Rat A, 45 min",20%
same,% Inhibition of Blood Pressure Elevation,"[1]; Rat A, 60 min",40%
same,% Inhibition of Blood Pressure Elevation,"[1]; Rat A, 75 min",33%
same,% Inhibition of Blood Pressure Elevation,"[1]; Rat A, 90 min",37%
same,% Inhibition of Blood Pressure Elevation,"[1]; Rat A, 120 min",37%
same,% Inhibition of Blood Pressure Elevation,"[1]; Rat A, 150 min",40%
same,% Inhibition of Blood Pressure Elevation,"[1]; Rat A, 180 min",33%
same,% Inhibition of Blood Pressure Elevation,"[1]; Rat B, 0 min",0%
same,% Inhibition of Blood Pressure Elevation,"[1]; Rat B, 30 min",11%
same,% Inhibition of Blood Pressure Elevation,"[1]; Rat B, 45 min",15%
same,% Inhibition of Blood Pressure Elevation,"[1]; Rat B, 60 min",26%
same,% Inhibition of Blood Pressure Elevation,"[1]; Rat B, 75 min",23%
same,% Inhibition of Blood Pressure Elevation,"[1]; Rat B, 90 min",21%
same,% Inhibition of Blood Pressure Elevation,"[1]; Rat B, 120 min",23%
same,% Inhibition of Blood Pressure Elevation,"[1]; Rat B, 150 min",23%
same,% Inhibition of Blood Pressure Elevation,"[1]; Rat B, 180 min",13%
same,% Inhibition of Blood Pressure Elevation,"[1]; Rat C, 0 min",0%
same,% Inhibition of Blood Pressure Elevation,"[1]; Rat C, 30 min",16%
same,% Inhibition of Blood Pressure Elevation,"[1]; Rat C, 45 min",6%
same,% Inhibition of Blood Pressure Elevation,"[1]; Rat C, 60 min",29%
same,% Inhibition of Blood Pressure Elevation,"[1]; Rat C, 75 min",2%
same,% Inhibition of Blood Pressure Elevation,"[1]; Rat C, 90 min",10%
same,% Inhibition of Blood Pressure Elevation,"[1]; Rat C, 120 min",16%
same,% Inhibition of Blood Pressure Elevation,"[1]; Rat C, 150 min",-4%
same,% Inhibition of Blood Pressure Elevation,"[1]; Rat C, 180 min",10%
same,% Inhibition of Blood Pressure Elevation,"[1]; Rats A-C Mean ± SE, 30 min",14 ± 2%
same,% Inhibition of Blood Pressure Elevation,"[1]; Rats A-C Mean ± SE, 45 min",14 ± 4%
same,% Inhibition of Blood Pressure Elevation,"[1]; Rats A-C Mean ± SE, 60 min",31 ± 4%
same,% Inhibition of Blood Pressure Elevation,"[1]; Rats A-C Mean ± SE, 75 min",20 ± 9%
same,% Inhibition of Blood Pressure Elevation,"[1]; Rats A-C Mean ± SE, 90 min",23 ± 8%
same,% Inhibition of Blood Pressure Elevation,"[1]; Rats A-C Mean ± SE, 120 min",26 ± 6%
same,% Inhibition of Blood Pressure Elevation,"[1]; Rats A-C Mean ± SE, 150 min",20 ± 13%
same,% Inhibition of Blood Pressure Elevation,"[1]; Rats A-C Mean ± SE, 180 min",19 ± 7%
same,inhibition in vivo at 3 mg/kg,[2],20%
"CCCCc1nc(CCCC)n(Cc2ccc(-c3ccccc3-c3nnn[nH]3)nc2)n1 [Example 3, 5-[2-[5-[(3,5-dibutyl-1H-1,2,4-triazol-1-yl)methyl]-2-pyridinyl]phenyl]-1H-tetrazole]",% Inhibition of Blood Pressure Elevation,"[1]; Rat A, 0 min",0%
same,% Inhibition of Blood Pressure Elevation,"[1]; Rat A, 30 min",64%
same,% Inhibition of Blood Pressure Elevation,"[1]; Rat A, 45 min",67%
same,% Inhibition of Blood Pressure Elevation,"[1]; Rat A, 60 min",52%
same,% Inhibition of Blood Pressure Elevation,"[1]; Rat A, 75 min",45%
same,% Inhibition of Blood Pressure Elevation,"[1]; Rat A, 90 min",60%
same,% Inhibition of Blood Pressure Elevation,"[1]; Rat A, 120 min",41%
same,% Inhibition of Blood Pressure Elevation,"[1]; Rat A, 150 min",38%
same,% Inhibition of Blood Pressure Elevation,"[1]; Rat A, 180 min",24%
same,% Inhibition of Blood Pressure Elevation,"[1]; Rat B, 0 min",0%
same,% Inhibition of Blood Pressure Elevation,"[1]; Rat B, 30 min",55%
same,% Inhibition of Blood Pressure Elevation,"[1]; Rat B, 45 min",71%
same,% Inhibition of Blood Pressure Elevation,"[1]; Rat B, 60 min",55%
same,% Inhibition of Blood Pressure Elevation,"[1]; Rat B, 75 min",53%
same,% Inhibition of Blood Pressure Elevation,"[1]; Rat B, 90 min",50%
same,% Inhibition of Blood Pressure Elevation,"[1]; Rat B, 120 min",50%
same,% Inhibition of Blood Pressure Elevation,"[1]; Rat B, 150 min",53%
same,% Inhibition of Blood Pressure Elevation,"[1]; Rat B, 180 min",40%
same,% Inhibition of Blood Pressure Elevation,"[1]; Rat C, 0 min",0%
same,% Inhibition of Blood Pressure Elevation,"[1]; Rat C, 30 min",15%
same,% Inhibition of Blood Pressure Elevation,"[1]; Rat C, 45 min",12%
same,% Inhibition of Blood Pressure Elevation,"[1]; Rat C, 60 min",46%
same,% Inhibition of Blood Pressure Elevation,"[1]; Rat C, 75 min",27%
same,% Inhibition of Blood Pressure Elevation,"[1]; Rat C, 90 min",46%
same,% Inhibition of Blood Pressure Elevation,"[1]; Rat C, 120 min",53%
same,% Inhibition of Blood Pressure Elevation,"[1]; Rat C, 150 min",50%
same,% Inhibition of Blood Pressure Elevation,"[1]; Rat C, 180 min",62%
same,% Inhibition of Blood Pressure Elevation,"[1]; Rat D, 0 min",0%
same,% Inhibition of Blood Pressure Elevation,"[1]; Rat D, 30 min",21%
same,% Inhibition of Blood Pressure Elevation,"[1]; Rat D, 45 min",14%
same,% Inhibition of Blood Pressure Elevation,"[1]; Rat D, 60 min",36%
same,% Inhibition of Blood Pressure Elevation,"[1]; Rat D, 75 min",36%
same,% Inhibition of Blood Pressure Elevation,"[1]; Rat D, 90 min",26%
same,% Inhibition of Blood Pressure Elevation,"[1]; Rat D, 120 min",34%
same,% Inhibition of Blood Pressure Elevation,"[1]; Rat D, 150 min",29%
same,% Inhibition of Blood Pressure Elevation,"[1]; Rat D, 180 min",3%
same,% Inhibition of Blood Pressure Elevation,"[1]; Rat E, 0 min",0%
same,% Inhibition of Blood Pressure Elevation,"[1]; Rat E, 30 min",52%
same,% Inhibition of Blood Pressure Elevation,"[1]; Rat E, 45 min",43%
same,% Inhibition of Blood Pressure Elevation,"[1]; Rat E, 60 min",38%
same,% Inhibition of Blood Pressure Elevation,"[1]; Rat E, 75 min",43%
same,% Inhibition of Blood Pressure Elevation,"[1]; Rat E, 90 min",29%
same,% Inhibition of Blood Pressure Elevation,"[1]; Rat E, 120 min",29%
same,% Inhibition of Blood Pressure Elevation,"[1]; Rat E, 150 min",16%
same,% Inhibition of Blood Pressure Elevation,"[1]; Rat E, 180 min",16%
same,% Inhibition of Blood Pressure Elevation,"[1]; Rats A-E Mean ± SE, 0 min",0%
same,% Inhibition of Blood Pressure Elevation,"[1]; Rats A-E Mean ± SE, 30 min",42 ± 10%
same,% Inhibition of Blood Pressure Elevation,"[1]; Rats A-E Mean ± SE, 45 min",41 ± 13%
same,% Inhibition of Blood Pressure Elevation,"[1]; Rats A-E Mean ± SE, 60 min",46 ± 4%
same,% Inhibition of Blood Pressure Elevation,"[1]; Rats A-E Mean ± SE, 75 min",41 ± 4%
same,% Inhibition of Blood Pressure Elevation,"[1]; Rats A-E Mean ± SE, 90 min",42 ± 6%
same,% Inhibition of Blood Pressure Elevation,"[1]; Rats A-E Mean ± SE, 120 min",41 ± 5%
same,% Inhibition of Blood Pressure Elevation,"[1]; Rats A-E Mean ± SE, 150 min",37 ± 7%
same,% Inhibition of Blood Pressure Elevation,"[1]; Rats A-E Mean ± SE, 180 min",29 ± 10%
same,inhibition in vivo at 3 mg/kg,[2],40%
